According to publication PMC7066245 (Scientific Reports, 2020):
Like-named read-outs stand apart in the source and are kept apart here.

Assays:
[1] = system: HL60 promyelocytic leukemia cells; assay: cells; format: cell-based, human; conditions: read-out: IC50 HL60
[2] = system: THP1 acute monocytic leukemia cells; assay: cells; format: cell-based, human; conditions: read-out: IC50 THP1
[3] = system: RPMI8226 myeloma cancer cells; assay: cells; format: cell-based, human; conditions: read-out: IC50 RPMI8226
THP1 cells [4] = format: cell-based, human; set-up: concentration or dose not given beside the values
THP1 cells [5] = assay: annexin V/propidium iodide apoptosis assay, THP1; format: cell-based, human; conditions: THP1, 48 h, 0.3 μM, annexin V/PI
Excerpt: (§1) Double staining of cells with Annexin V and propidium iodide (PI) was used according to the protocol described in our previous article. This method is a useful tool for distinguishing viable cells (unstained with either fluorochrome) from early apoptotic cells (stained only with Annexin V), late apoptotic (stained with Annexin V and propidium iodide) and necrotic (dead) cells (stained only with PI).
(§2) Briefly, 5 × 10^5 control and drug treated cells were washed with cold PBS and resuspended in 500 μl binding buffer (delivered from producer) that contained 5 μl of Annexin V fluorescein isothiocyanate (FITC), 5 μl of PI and stained for 15 minutes in room temperature. Finally, at least 10^4 cells were analyzed for FITC and PI fluorescence (Ex ~488 nm; Em ~530 nm) using a flow cytometer (LSR II, Becton Dickinson). The cells stained with the annexin V/propidium iodide mixture were then visualized using fluorescence microscopy (Olympus IX70, Japan), magnification × 200.

RPMI8226 cells [6] = format: cell-based, human
[7] = system: caspase-3/-7 in RPMI8226 cells; format: cell-based, human
[8] = system: caspase-3/-7 in THP1 cells; format: cell-based, human
[9] = system: caspase-3/-7 in HL60 cells; format: cell-based, human
[10] = system: intracellular calcium (Ca2+) in HL60 cells; assay: intracellular calcium measurement (Fluo-4-NW), HL60; format: cell-based, human; conditions: HL60, IC50 dose
Procedure: (§3) Intracellular calcium level was determined using the fluorescent probe Fluo-4NW according to the protocol described in our previous article. After entering the cell, Fluo-4NW is converted by cytosolic hydrolases to the active form, having the possibility of binding of calcium ions. As a result of joining of calcium ions, the probe emits fluorescence (λem = 538 nm) after excitation with light of wavelength 485 nm.
(§4) Cells were cultured and treated with investigated compounds on Petri dishes. Next, the cells were plated in 96-well black fluorimetric plates (2 × 10^4 cells/well). The growth medium was removed and the cells were washed with PBS in order to eliminate sources of baseline fluorescence. Finally a dye loading solution (Fluo-4-NW dye, 4-[(Dipropylamino)sulfonyl] benzoic acid (Probenecid) - used to inhibit extrusion of the indicator out of the cell by organic anion transporters, Hanks’ balanced salt solution (HBSS), 20 mM N-(2- hydroxyethyl)piperazine-N’-(2-ethanesulfonic acid) buffer solution (HEPES)) was added in a volume of 100 μl per well and incubated for 30 min in the total darkness at 37 °C, and then for next 30 min. at room temperature. The measurement was done on Fluoroskan Ascent FL microplate reader (Labsystems, Sweden) using 494 nm excitation and 516 nm emission wavelengths.

[11] = system: normal peripheral blood-derived mononuclear cells (PBMC); assay: cells; format: cell-based; conditions: read-out: IC50 PBMC
[12] = system: intracellular calcium (Ca2+) in THP1 cells; assay: intracellular calcium measurement (Fluo-4-NW), THP1; format: cell-based, human; conditions: THP1, IC50 dose, 4 h
Procedure: as §3, §4

RPMI8226 cells [13] = assay: annexin V/propidium iodide apoptosis assay, RPMI8226; format: cell-based, human; conditions: RPMI8226, 48 h, 3 µM, annexin V/PI
Excerpt: as §1, §2

caspase-9 in THP1 cells = format: cell-based, human
HL60 cells = assay: annexin V/propidium iodide apoptosis assay, HL60; format: cell-based, human; conditions: HL60, 48 h, 0.7 μM, annexin V/PI
Excerpt: as §1, §2

Structure (SMILES): CCCN(C=NC(Cc1ccc(N(CCCl)CCCl)cc1)C(=O)O)CCC (centres unmarked) [DIPR-MEL]
- IC50 ([1]; Homo sapiens, HL-60, 48 h): > 30 µM
- IC50 ([2]; Homo sapiens, THP-1, 48 h): > 30 µM
- IC50 ([3]; Homo sapiens, RPMI-8226, 48 h): > 30 µM

Structure (SMILES): CCCN(C=NC(Cc1ccc(N(CCCl)CCCl)cc1)C(=O)OCC)CCC (centres unmarked) [EE-DIPR-MEL]
- DNA damage (tail DNA), THP1 (THP1 cells [4]): ~ 7%
- IC50 ([1]; Homo sapiens, HL-60, 48 h): 1.05 µM
- IC50 ([2]; Homo sapiens, THP-1, 48 h): 0.69 µM
- late apoptotic cells, THP1 (THP1 cells [5]): comparable to that of the unmodified drug
- IC50 ([3]; Homo sapiens, RPMI-8226, 48 h): 4.85 ± 0.195 µM
- IC50 [3]: 5.94 µM
- DNA damage (tail DNA), RPMI8226 (RPMI8226 cells [6]): comparable to that of melphalan

Structure (SMILES): CCOC(=O)C(N)Cc1ccc(N(CCCl)CCCl)cc1 (centres unmarked) [EE-MEL]
- DNA damage (tail DNA), THP1 (THP1 cells [4]): ~ 15%
- Caspase 3 activity RPMI8226, 24 h [7]: 656.19 ± 221.7%
- Caspase 3 activity THP1, 24 h [8]: 788.85 ± 83.40%
- Caspase 3 activity HL-60, 24 h [9]: 1225.64 ± 155.22%
- IC50 [1]: 0.7 µM
- fold increase of intracellular calcium, HL60, 24 h [10]: approx. 2 fold
- IC50 [2]: 0.35 µM
- IC50 [11]: 2.2 ± 0.25 µM
- IC50 [3]: 1.17 µM
- DNA damage (tail DNA), RPMI8226 (RPMI8226 cells [6]): ~ 38%

Structure (SMILES): CCOC(=O)C(Cc1ccc(N(CCCl)CCCl)cc1)N=CN1CCOCC1 (centres unmarked) [EE-MOR-MEL]
- DNA damage (tail DNA), THP1 (THP1 cells [4]): ~ 13%
- fold increase of intracellular calcium ions, THP1 [12]: approx. 2.8 fold
- Caspase 3 activity THP1, 24 h [8]: 981.93 ± 51.79%
- Caspase 3 activity HL-60, 24 h [9]: 1127.68 ± 39.24%
- IC50 ([1]; Homo sapiens, HL-60, 48 h): 0.32 µM
- IC50 ([2]; Homo sapiens, THP-1, 48 h): 0.04 µM
- IC50 ([3]; Homo sapiens, RPMI-8226, 48 h): 3.13 µM

Structure (SMILES): CCCN(C=NC(Cc1ccc(N(CCCl)CCCl)cc1)C(=O)OC)CCC (centres unmarked) [EM-DIPR-MEL]
- DNA damage (tail DNA), THP1 (THP1 cells [4]): ~ 7%
- IC50 ([1]; Homo sapiens, HL-60, 48 h): 0.85 µM
- IC50 ([2]; Homo sapiens, THP-1, 48 h): 0.41 µM
- late apoptotic cells, THP1 (THP1 cells [5]): comparable to that of the unmodified drug
- IC50 ([3]; Homo sapiens, RPMI-8226, 48 h): 5.94 ± 0.65 µM
- IC50 [3]: 4.85 µM
- DNA damage (tail DNA), RPMI8226 (RPMI8226 cells [6]): comparable to that of melphalan

Structure (SMILES): COC(=O)C(Cc1ccc(N(CCCl)CCCl)cc1)N=CN1CCOCC1 (centres unmarked) [EM-MOR-MEL]
- DNA damage (tail DNA), THP1 (THP1 cells [4]): ~ 13%
- IC50 ([1]; Homo sapiens, HL-60, 48 h): 0.49 ± 0.098 µM
- IC50 ([2]; Homo sapiens, THP-1, 48 h): 0.07 ± 0.004 µM
- IC50 ([11]; PBMC, 48 h): 6.41 ± 0.85 µM
- IC50 ([3]; Homo sapiens, RPMI-8226, 48 h): 3.6 µM

Structure (SMILES): N[C@@H](Cc1ccc(N(CCCl)CCCl)cc1)C(=O)O [MEL, melphalan, reference compound]
- late apoptotic cells, RPMI8226 (RPMI8226 cells [13]): approximately 25%
- Caspase 9 activity THP1, 24 h (caspase-9 in THP1 cells): 316.5 ± 17.31%
- level of intracellular calcium, THP1 ([12]; control = 100%): 131.27 ± 10.08%
- Caspase 3 activity RPMI8226, 24 h [7]: 463.75 ± 64.5%
- Caspase 3 activity THP1, 24 h [8]: 429.08 ± 48.10%
- Caspase 3 activity HL-60, 24 h [9]: 736.92 ± 105.48%
- IC50 ([1]; Homo sapiens, HL-60, 48 h): 3.78 µM
- IC50 ([2]; Homo sapiens, THP-1, 48 h): 6.26 µM
- late apoptotic cells, THP1 (THP1 cells [5]): ~17%
- late apoptotic cells, HL60 (HL60 cells): ~35%
- IC50 ([3]; Homo sapiens, RPMI-8226, 48 h): 8.9 µM

Structure (SMILES): O=C(O)C(Cc1ccc(N(CCCl)CCCl)cc1)N=CN1CCOCC1 (centres unmarked) [MOR-MEL]
- IC50 ([1]; Homo sapiens, HL-60, 48 h): > 30 µM
- IC50 ([2]; Homo sapiens, THP-1, 48 h): > 30 µM
- IC50 ([3]; Homo sapiens, RPMI-8226, 48 h): > 30 µM
